Experimental data taken from patent US20230416247A1, “DRUG-LIKE MOLECULES AND METHODS FOR THE THERAPEUTIC TARGETING OF MICRORNA-21” (University of Washington, priority 2020, published 2023).

Experiments:
[1] = system: mature miR-10b in AGS cells; experiment: qRT-PCR of mature miR-10b in AGS cells; assay type: cell-based, human; conditions: 10 nmoles, 48 hours, relative to DMSO control
Procedure: FIGS. 14A-14D compare levels of mature miR-10b and pre-miR-10b measured in gastric adenocarcinoma (AGS) (FIGS. 14A and 14B, respectively) and pancreatic cancer cell line (ASPC 1) (FIGS. 14C and 14D, respectively), normalized to internal controls (U6 or U8 snRNA), in the presence of 10 nmoles of palbociclib (a negative control not expected to directly affect miRNA levels) and compounds −0045 and −0052, 48 hours after incubation, relative to DMSO control, and measured by standard qRT-PCR. We notice that levels of pre-miR-10b are very low in both cell lines, rendering the data very uncertain. Statistically significant changes are labeled with asterisks.
In order to investigate whether inhibition was specific to miR-21, levels of mature miR-10b and pre-miR-10b were examined in the same cell lines (FIGS. 14A-14D); this is another oncogenic microRNA implicated in metastasis. […]
Quantitative real time PCR analysis. […] RNA concentration was assessed with the NanoDrop ND-1000 spectrophotometer (ThermoFisher Scientific). […] Expression of miR-21 was assessed utilizing the TaqMan microRNA assay (Applied Biosystems). […] All experiments were performed in triplicate, with all samples normalized to the internal controls and relative expression levels calculated using the 2^ΔΔCt method.

[2] = system: pre-Let7 processing by Dicer-TRBP; experiment: Dicer/TRBP in vitro processing of pre-Let7; assay type: biochemical, human; conditions: 2 μM compound vs no compound
Procedure: In order to further assess the biochemical activity of our compounds, processing of pre-miR-21 and pre-Let7 by Dicer-TRBP in vitro was compared. FIGS. 9A and 9B show selective response in the rate of processing under early phase reaction conditions, before significant product builds up, for pre-miR21 compared to pre-Let7.
The results are specific to the initial rates (0.25-5 min) of the reaction. […] This is inevitable because Dicer binds the product tightly. This assay and method of inhibiting miR-21 synthesis is different than typical enzymatic assays. First, the small molecule is targeting the substrate of the enzymatic assay. High affinity compounds that change the structure of the substrate may reduce processing but might not inhibit processing completely. Rather, changes in the specificity constant (kcat/Km), are a better measure of small molecule inhibition than traditional Ki's.
Dicer/TRBP. The Dicer/TRBP enzyme complex was expressed and purified using published methods and stored at −80° C. in 20 μL aliquots until needed. Briefly, the gene encoding human full-length Dicer was inserted into a modified pFastBac1 vector (Invitrogen), which has an N-terminal glutathione-S-transferase (GST) tag. […] The clones were transformed into Rosetta 2 cells and the transformants were grown in LB media at 37° C. until the cells reached a density corresponding to an OD reading of 0.8 at 600 nm. […]

| Compound | reduction of levels of mature miR-10b [1] | DICER/TRBP activity on pre-Let7 [2] |
| --- | --- | --- |
| O=c1[nH]c(Nc2ccc(N3CCNCC3)cn2)nc2cnccc12 [Compound 30] | about 2 fold | – |
| O=c1[nH]c(Nc2ccc(N3CCNCC3)cn2)nc2cccnc12 [Compound 25] | – | no significant difference in activity is observed |
